Literature values as cited in patent US20050042301A1, “Method of use of Xenon-133 for the treatment of AIDS, other viral and non-viral infections” (priority 2003, published 2005).

Conditions: stable xenon; b17 says distributed in the body, b20 says formed in vitro

[131Xe] [Xe-131, Xenon-131]
size range of gas microbubbles (diameter): 5-10 microns
